Source: patent US20240010606A1, “FUMARATE DERIVATIVES AND THEIR MEDICAL USE” (Sitryx Therapeutics Limited, priority 2020, published 2024)

Key:
[1] = Hepatocyte stability assay, mouse; type: in vitro ADME; settings: mouse, cryopreserved hepatocytes, 10 μM compound
From the text: (§1) Biological Example 3—Hepatocyte Stability Assay
(§2) Defrosted cryo-preserved hepatocytes (viability >70%) are used to determine the metabolic stability of a compound via calculation of intrinsic clearance (CIint; a measure of the removal of a compound from the liver in the absence of blood flow and cell binding). Clearance data are particularly important for […] as they can be used in combination with in vivo data to predict the half-life and oral bioavailability of a drug.
(§3) The metabolic stability in hepatocytes assay involves a time-dependent reaction using both positive and negative controls. The cells must be pre-incubated at 37° C. then spiked with test compound (and positive control); samples taken at pre-determined time intervals are analysed to monitor the change in concentration of the initial drug compound over 60 minutes. A buffer incubation reaction (with no hepatocytes present) acts as a negative control and two cocktail solutions, containing compounds with known high and low clearance values (verapamil/7-hydroxycoumarin and propranolol/diltiazem), act as positive controls. • 1. The assay is run with a cell concentration of 0.5×10^6 cells/mL in Leibovitz buffer. • 2. All compounds and controls are run in duplicate. • 3. Compound concentration is 10 μM. • 4. All compounds and controls are incubated with both cells and buffer to show turnover is due to hepatic metabolism. • 5. All wells on the incubation plate will have 326.7 μL of either cells or buffer added. • 6. Prior to assay, cell and buffer-only incubation plates are preincubated for 10 mins at 37° C. • 7. The assay is initiated by adding compounds, 3.3 μL of 1 mM in 10% DMSO-90% Buffer; final DMSO concentration is 0.1%. • 8. Samples are taken at regular timepoints (0, 5, 10, 20, 40, 60 min) until 60 mins. • 9. Sample volume is 40 μL and it is added to 160 μL of crash solvent (acetonitrile with internal standard) and stored on ice. • 10. At the end of the assay, the crash plates are centrifuged at 3500 rpm for 20 mins at 4° C. • 11. 80 μL of clear supernatant is removed and mixed with 80 μL of deionised water before being analysed by LC-MS/MS.
(§4) Raw LC-MS/MS data are exported to, and analysed in, Microsoft Excel for determination of intrinsic clearance. The percentage remaining of a compound is monitored using the peak area of the initial concentration as 100%. Intrinsic clearance and half-life values are calculated using a graph of the natural log of percentage remaining versus the time of reaction in minutes. Half-life (min) and intrinsic clearance (CIint in μL min^−1 10^−6 cells) values are calculated using the gradient of the graph (the elimination rate constant, k) and Equations 1 and 2.

hepatocytes [2] = assay: Hepatocyte stability assay, mouse; type: in vitro ADME; settings: 10 μM compound
From the text: as §1, §2, §3, §4

IL-1β = assay: THP-1 AlphaLISA IL-1β cytokine assay; type: cell-based; settings: Homo sapiens, differentiated THP-1 cells
Experimental: (§5) Biological Example 1—THP-1 AlphaLISA IL-1β and IL-6 Cytokine Assay Measuring Inhibitory Effects on IL-1, and IL-6 Cytokine Output from THP-1s The cytokine inhibition profiles of compounds of formula (I) were determined in a differentiated THP-1 cell assay. All assays were performed in RPMI-1640 growth medium (Gibco), supplemented with 10% fetal bovine serum (FBS; Gibco), 1% penicillin-streptomycin and 1% sodium pyruvate unless specified otherwise. The IL-1β and IL-6 cytokine inhibition assays were each run in a background of differentiated THP-1 cells as described below. All reagents described were from Sigma-Aldrich unless specified otherwise. Compounds were prepared as 10 mM DMSO stocks. THP-1 cells were expanded as a suspension up to 80% confluence in appropriate growth medium. Cells were harvested, suspended, and treated with an appropriate concentration of phorbol 12-myristate 13-acetate (PMA) over a 72 hr period (37° C./5% CO2). Following 72 hrs of THP-1 cell incubation, cellular medium was removed and replaced with fresh growth media containing 1% of FBS. Working concentrations of compounds were prepared separately in 10% FBS treated growth medium and pre-incubated with the cells for 30 minutes (37° C./5% CO2). Following the 30 minute compound pre-incubation, THP-1s were treated with an appropriate concentration of LPS and the THP-1s were subsequently incubated for a 24 hr period (37° C./5% CO2). An appropriate final concentration of Nigericin was then dispensed into the THP-1 plates and incubated for 1 hour (37° C./5% CO2) before THP-1 supernatants were harvested and collected in separate polypropylene 96-well holding plates. Reagents from each of the IL-1β and IL-6 commercial kits (Perkin Elmer) were prepared and run according to the manufacturer's instructions. Subsequently, fluorescence signal detection in a microplate reader was measured (EnVision® Multilabel Reader, Perkin Elmer). Percentage inhibition was calculated per cytokine by normalizing the sample data to the high and low controls used within each plate (+/−LPS respectively). Percentage inhibition was then plotted against compound concentration and the 50% inhibitory concentration (IC50) was determined from the resultant concentration-response curve.

IL-6 = assay: THP-1 AlphaLISA IL-6 cytokine assay; type: cell-based; settings: Homo sapiens, THP-1, differentiated THP-1 cells; Table 2, compounds of formula (II)
Experimental: as §5

[3] = Hepatocyte stability assay, human; type: in vitro ADME; settings: cryopreserved hepatocytes, 10 μM compound
From the text: as §1, §2, §3, §4

hepatocytes [4] = assay: Hepatocyte stability assay, human; type: in vitro ADME; settings: 10 μM compound
From the text: as §1, §2, §3, §4

NRF2 = NRF2 activation assay (DiscoverX PathHunter NRF2 translocation kit, U2OS cells); type: cell-based
Experimental: Biological Example 2—NRF2 Activation Assay Measuring Compound Activation Effects on the Anti-Inflammatory Transcription Factor NRF2 in DiscoverX PathHunter NRF2 Translocation Kit Potency and efficacy of compounds of formula (I) against the target of interest to activate NRF2 (nuclear factor erythroid 2-related factor 2) were determined using the PathHunter NRF2 translocation kit (DiscoverX). The NRF2 translocation assay was run using an engineered recombinant cell line, utilising enzyme fragment complementation to determine activation of the Keap1-NRF2 protein complex and subsequent translocation of NRF2 into the nucleus. Enzyme activity was quantified using a chemiluminescent substrate consumed following the formation of a functional enzyme upon PK-tagged NRF2 translocation into the nucleus. Additionally, a defined concentration of dimethyl fumarate was used as the ‘High’ control to normalise test compound activation responses to. U2OS PathHunter eXpress cells were thawed from frozen prior to plating. Following plating, U2OS cells were incubated for 24 hrs (37° C./5% CO2) in commercial kit provided cell medium. Following 24 hrs of U2OS incubation, cells were directly treated with an appropriate final concentration of compound. Following compound treatment, the U2OS plates were incubated for a further 6 hours (37° C./5% CO2) before detection reagent from the PathHunter NRF2 commercial kit was prepared and added to test plates according to the manufacturer's instructions. Subsequently, the luminescence signal detection in a microplate reader was measured (PHERAstar®, BMG Labtech). Percentage activation was calculated by normalising the sample data to the high and low controls used within each plate (+/−DMF). Percentage activation/response was then plotted against compound concentration and the 50% activation concentration (EC50) was determined from the plotted concentration-response curve.

[5] = Table 2, compounds of formula (II)
[6] = +GSH, normalised to dimethyl fumarate high control, Table 3
[7] = −GSH, normalised to dimethyl fumarate high control, Table 3
[8] = +GSH, Table 4, compounds of formula (II)
[9] = −GSH, Table 4, compounds of formula (II)

## C[C@H]1C[C@](OC(=O)/C=C/C(=O)O)(c2ccc(C(F)(F)F)cc2)C1 (single isomer, unassigned) [Intermediate 33, (E)-4-((cis)-3-methyl-1-(4-(trifluoromethyl)phenyl)cyclobutoxy)-4-oxobut-2-enoic acid]
[1]; Table 6, read-out: T½
  half-life at 10 μM: 30 to 100 min
Hepatocytes [2]; Table 6
  CIint: +++ (+++ means >15-30)
IL-1β; [5]
  IC50: < 6 µM
IL-6
  IC50: < 6 µM
[3]; Table 6, read-out: T½
  half-life at 10 μM: > 100 min
Hepatocytes [4]; Table 6
  CIint: ++++ (++++ means 5-15)

## O=C(O)/C=C/C(=O)OC(c1ccc(C(F)(F)F)cc1)C(F)(F)F (single isomer, unassigned) [Intermediate 44, (E)-4-oxo-4-(2,2,2-trifluoro-1-(4-(trifluoromethyl)phenyl)ethoxy)but-2-enoic acid]
[1]; Table 6, read-out: T½
  half-life at 10 μM: < 5 min
Hepatocytes [2]; Table 6
  CIint: + (+ means >110-277)
IL-1β; [5]
  IC50: < 6 µM
IL-6
  IC50: < 6 µM
[3]; Table 6, read-out: T½
  half-life at 10 μM: 5 to 29 min
Hepatocytes [4]; Table 6
  CIint: ++ (++ means >30-110)

## CCCCCC[C@@H](C)OC(=O)/C=C/C(=O)OCC(=O)O [Example 13, 2-[(E)-4-[(1R)-1-methylheptoxy]-4-oxo-but-2-enoyl]oxyacetic acid]
[1]; Table 5, read-out: T½
  half-life at 10 μM: < 5 min
Hepatocytes [2]; Table 5
  CIint: + (+ means >277)
NRF2; +GSH, Table 3
  EC50: 20 to 100 µM
NRF2; [6]
  NRF2 activation Emax: ++ (++ means 100-149)
NRF2; −GSH, Table 3
  EC50: < 2 µM
NRF2; [7]
  NRF2 activation Emax: +++ (+++ means 150-199%)
IL-1β; LPS then Nigericin, Table 1
  IC50: 2.5 to 6.1 µM
[3]; Table 5, read-out: T½
  half-life at 10 μM: 5 to 29 min
Hepatocytes [4]; Table 5
  CIint: +++ (+++ means 50-149)

## CCCCCC[C@@H](C)OC(=O)/C=C/C(=O)OCCC(=O)O [Example 14, (R,E)-3-((4-(octan-2-yloxy)-4-oxobut-2-enoyl)oxy)propanoic acid]
[1]; Table 5, read-out: T½
  half-life at 10 μM: < 5 min
Hepatocytes [2]; Table 5
  CIint: + (+ means >277)
NRF2; +GSH, Table 3
  EC50: 6 to 20 µM
NRF2; [6]
  NRF2 activation Emax: ++ (++ means 100-149)
NRF2; −GSH, Table 3
  EC50: 2.1 to 6 µM
NRF2; [7]
  NRF2 activation Emax: +++ (+++ means 150-199%)
IL-1β; LPS then Nigericin, Table 1
  IC50: < 2.5 µM
[3]; Table 5, read-out: T½
  half-life at 10 μM: < 5 min
Hepatocytes [4]; Table 5
  CIint: + (+ means >277)

## O=C(O)/C=C/C(=O)OC1CCCCCCC1 [Intermediate 6, (E)-4-(cyclooctyloxy)-4-oxobut-2-enoic acid]
[1]; Table 6, read-out: T½
  half-life at 10 μM: 5 to 29 min
Hepatocytes [2]; Table 6
  CIint: ++ (++ means >30-110)
NRF2; [8]
  EC50: < 23 µM
  NRF2 activation Emax: ++++ (++++ means >150%)
NRF2; [9]
  EC50: < 23 µM
  NRF2 activation Emax: ++++ (++++ means >150%)
IL-1β; [5]
  IC50: 6 to 30 µM
[3]; Table 6, read-out: T½
  half-life at 10 μM: > 100 min
Hepatocytes [4]; Table 6
  CIint: ++++ (++++ means 5-15)

## O=C(O)/C=C/C(=O)OC1CC2(CCC2)C1 [Intermediate 7, (E)-4-oxo-4-(spiro[3.3]heptan-2-yloxy)but-2-enoic acid]
[1]; Table 6, read-out: T½
  half-life at 10 μM: 5 to 29 min
Hepatocytes [2]; Table 6
  CIint: ++ (++ means >30-110)
NRF2; [8]
  EC50: < 23 µM
  NRF2 activation Emax: +++ (+++ means >114-150%)
NRF2; [9]
  EC50: < 23 µM
  NRF2 activation Emax: ++++ (++++ means >150%)
IL-1β; [5]
  IC50: 6 to 30 µM
[3]; Table 6, read-out: T½
  half-life at 10 μM: 30 to 100 min
Hepatocytes [4]; Table 6
  CIint: +++ (+++ means >15-30)

## O=C(O)/C=C/C(=O)OC1CCCCCC1 [Intermediate 8, (E)-4-(cycloheptyloxy)-4-oxobut-2-enoic acid]
[1]; Table 6, read-out: T½
  half-life at 10 μM: 30 to 100 min
Hepatocytes [2]; Table 6
  CIint: ++ (++ means >30-110)
NRF2; [8]
  EC50: 23 to 48.4 µM
  NRF2 activation Emax: +++ (+++ means >114-150%)
NRF2; [9]
  EC50: < 23 µM
  NRF2 activation Emax: ++++ (++++ means >150%)
IL-1β; [5]
  IC50: 30 to 50 µM
[3]; Table 6, read-out: T½
  half-life at 10 μM: 30 to 100 min
Hepatocytes [4]; Table 6
  CIint: +++ (+++ means >15-30)

## O=C(O)/C=C/C(=O)OC1(c2ccc(C(F)(F)F)s2)CCC1 [Intermediate 36, (E)-4-oxo-4-(1-(5-(trifluoromethyl)thiophen-2-yl)cyclobutoxy)but-2-enoic acid]
[1]; Table 6, read-out: T½
  half-life at 10 μM: 30 to 100 min
Hepatocytes [2]; Table 6
  CIint: ++ (++ means >30-110)
NRF2; [8]
  EC50: < 23 µM
  NRF2 activation Emax: ++ (++ means >87-114%)
NRF2; [9]
  EC50: < 23 µM
  NRF2 activation Emax: +++ (+++ means >114-150%)
IL-1β; [5]
  IC50: < 6 µM
[3]; Table 6, read-out: T½
  half-life at 10 μM: > 100 min
Hepatocytes [4]; Table 6
  CIint: ++++ (++++ means 5-15)
